Tests used:
HER2 = HER2 (Homo sapiens, UniProt P04626); assay: Suppression of receptor tyrosine-phosphorylation in human breast cancer cells (intracellular HER2 phosphorylation, MCF-7, heregulin stimulation); type: cell-based; design: endogenous in cells; host or cells: MCF-7; conditions: MCF-7 cells; test compound 2 hours, then heregulin 0.8 μg/ml 5 minutes; read-out: Intracellular HER2 phosphorylation inhibition MCF-7 (IC50:μM)
Protocol: Cell suspension of Human breast cancer cell line MCF-7 (500 μl), suspended at 300,000 cells/0.5 mL, was placed in a 24-well plate and cultured at 37° C. in a 5% carbon dioxide gas incubator. On the following day, 250 μl of a solution of 4-fold serially diluted test compound was added. After 2 hours, 250 μl of a heregulin solution, prepared to a final concentration of 0.8 μg/ml, was added. After 5 minutes, a buffer solution for lysis of extract solution was added to stop the reaction and to extract and yield a cell-lysate protein. After this cell-lysate protein was subjected to SDS-polyacrylamide gel electrophoresis to separate the protein, the protein in the gel was blotted onto a nylon filter. This filter was reacted with an anti-phosphotyrosine specific antibody; the portion containing phosphotyrosine on the filter was luminated using the ECL method to photosensitize an X-ray film. The amount of the film photosensitization was determined using an image analyzer.

[1] = tested on: human breast cancer cell line BT-474; assay: Inhibitory action on breast cancer cell line BT-474 proliferation in vitro (SRB); type: cell-based; conditions: heregulin 0.04 μg/ml, cultured 5 days, read-out: Inhibition of cell proliferation BT-474 (IC50:μM)
Protocol: Cell suspension of human breast cancer cell line BT-474 (100 μl) suspended at 1,000 cells/100 μl), was placed in a 96-well microwell plate and cultured at 37° C. in a 5% carbon dioxide gas incubator. On the following day, 100 μl of a solution of each test compound, previously diluted 2-fold with a heregulin solution prepared to a final concentration of 0.04 μg/ml, was added, and the cells were cultured for 5 days. After the culture medium containing the test compound was removed, the cells were washed and fixed with 5% trichloroacetic acid, after which a 0.4% (w/v) SRB solution (dissolved in 1% acetic acid) was added to fix and stain the cells (Skehan et al., Journal of the National Cancer Institute, Vol. 82, pp. 1107-1112, 1990). After the pigment solution was removed and the plate was washed with a 1% acetic acid solution, 100 μl of an extractant (10 mM Tris buffer solution) was added to extract and dissolve the pigment; absorbance was measured at an absorption wavelength of 550 nm to quantify the amount of cells as protein content. Taking as 100% the absorbance for the control group, which received no test compound solution, the ratio of the absorbance for each treatment group was determined, and the compound concentration required to achieve 50% suppression of the residual cell content relative to the control (IC50 value) was calculated.

Sequence of HER2 (P04626 23-1255): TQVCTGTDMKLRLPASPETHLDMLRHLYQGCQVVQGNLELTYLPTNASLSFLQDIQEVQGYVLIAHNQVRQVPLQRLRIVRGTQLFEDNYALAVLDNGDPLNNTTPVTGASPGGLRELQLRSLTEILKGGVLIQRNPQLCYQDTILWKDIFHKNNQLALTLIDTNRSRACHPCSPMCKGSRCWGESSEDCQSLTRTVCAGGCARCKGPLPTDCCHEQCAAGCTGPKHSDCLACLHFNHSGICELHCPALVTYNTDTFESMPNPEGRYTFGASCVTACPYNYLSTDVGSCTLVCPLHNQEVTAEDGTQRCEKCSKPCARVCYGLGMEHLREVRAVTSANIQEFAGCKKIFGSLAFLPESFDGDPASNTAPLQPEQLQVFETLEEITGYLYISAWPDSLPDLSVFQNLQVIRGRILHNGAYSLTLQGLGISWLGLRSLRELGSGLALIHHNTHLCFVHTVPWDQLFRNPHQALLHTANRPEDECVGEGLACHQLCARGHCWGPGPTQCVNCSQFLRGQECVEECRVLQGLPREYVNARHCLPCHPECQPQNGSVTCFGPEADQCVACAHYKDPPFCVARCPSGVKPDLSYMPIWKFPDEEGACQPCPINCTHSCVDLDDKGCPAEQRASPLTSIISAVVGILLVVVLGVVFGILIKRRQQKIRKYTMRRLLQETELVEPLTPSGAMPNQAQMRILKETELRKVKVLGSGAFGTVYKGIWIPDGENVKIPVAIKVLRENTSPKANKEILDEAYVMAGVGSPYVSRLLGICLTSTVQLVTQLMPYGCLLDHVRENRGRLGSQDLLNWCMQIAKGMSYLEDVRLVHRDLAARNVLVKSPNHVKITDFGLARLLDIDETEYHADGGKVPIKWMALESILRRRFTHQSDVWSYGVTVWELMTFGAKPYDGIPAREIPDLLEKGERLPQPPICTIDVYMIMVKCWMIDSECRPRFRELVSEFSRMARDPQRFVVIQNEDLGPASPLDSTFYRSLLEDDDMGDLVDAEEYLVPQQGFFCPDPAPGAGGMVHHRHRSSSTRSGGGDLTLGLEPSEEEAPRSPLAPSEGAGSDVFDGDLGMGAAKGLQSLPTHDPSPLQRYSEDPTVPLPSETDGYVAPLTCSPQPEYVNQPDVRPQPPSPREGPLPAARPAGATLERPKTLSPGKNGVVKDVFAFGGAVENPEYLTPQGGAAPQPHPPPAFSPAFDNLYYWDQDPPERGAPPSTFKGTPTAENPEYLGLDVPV

SMILES	melting point	IC50 (HER2)	IC50 [1]
FC(F)(F)c1ccc(/C=C/c2nc(COc3ccc(CCCn4ccnn4)cc3)co2)cc1 [Compound B5, 1-(3-{4-[(2-((E)-2-[4-(trifluoromethyl)phenyl]ethenyl)-1,3-oxazol-4-yl)methoxy]phenyl}propyl)-1H-1,2,3-triazole]	157 to 158 °C		
FC(F)(F)c1ccc(/C=C/c2nc(COc3cccc(CCCn4ccnn4)c3)co2)cc1 [Compound B6, 1-(3-{3-[(2-{(E)-2-[4-(trifluoromethyl)phenyl]ethenyl}-1,3-oxazol-4-yl)methoxy]phenyl}propyl)-1H-1,2,3-triazole]	115 to 116 °C		
Fc1ccc(/C=C/c2nc(COc3ccc(CCCCn4ccnn4)cc3)co2)c(F)c1 [Compound B7, 1-{4-[4-({2-[(E)-2-(2,4-difluorophenyl)ethenyl]-1,3-oxazol-4-yl}methoxy)phenyl]butyl}-1H-1,2,3-triazole]	115 to 117 °C		
Fc1ccc(/C=C/c2nc(COc3cccc(CCCn4ccnn4)c3)co2)c(F)c1 [Compound B8, 1-{3-[3-({2-[(E)-2-(2,4-difluorophenyl)ethenyl]-1,3-oxazol-4-yl}methoxy)phenyl]propyl}-1H-1,2,3-triazole]	89 to 90 °C		
Cc1ccc(/C=C/c2nc(COc3ccc(CCCCn4ccnc4CCO)cc3)co2)cc1 [Compound B10, 2-[1-[4-[4-[[2-[(E)-2-(4-methylphenyl)ethenyl]-1,3-oxazol-4-yl]methoxy]phenyl]butyl]-1H-imidazol-2-yl]-1-ethanol]	108 to 109 °C		
Cc1cccc(/C=C/c2nc(COc3ccc(CCCCn4ccnc4CCO)cc3)co2)c1 [Compound B11, 2-[1-[4-[4-[[2-[(E)-2-(3-methylphenyl)ethenyl]-1,3-oxazol-4-yl]methoxy]phenyl]butyl]-1H-imidazol-2-yl]-1-ethanol]	109 to 111 °C		
Cc1ccccc1/C=C/c1nc(COc2ccc(CCCCn3ccnc3CCO)cc2)co1 [Compound B12, 2-[1-[4-[4-[[2-[(E)-2-(2-methylphenyl)ethenyl]-1,3-oxazol-4-yl]methoxy]phenyl]butyl]-1H-imidazol-2-yl]-1-ethanol]	91 to 93 °C		
CCc1ccc(/C=C/c2nc(COc3ccc(CCCCn4ccnc4CCO)cc3)co2)cc1 [Compound B13, 2-[1-[4-[4-[[2-[(E)-2-(4-ethylphenyl)ethenyl]-1,3-oxazol-4-yl]methoxy]phenyl]butyl]-1H-imidazol-2-yl]-1-ethanol]	94 to 95 °C		
OCCc1nccn1CCCCc1ccc(OCc2coc(/C=C/c3ccc(F)cc3)n2)cc1 [Compound B14, 2-(1-{4-[4-({2-[(E)-2-(4-fluorophenyl)ethenyl]-1,3-oxazol-4-yl}methoxy)phenyl]butyl)-1H-imidazol-2-yl)-1-ethanol]	130 to 132 °C		
OCCc1nccn1CCCCc1ccc(OCc2coc(/C=C/c3ccc(Cl)cc3)n2)cc1 [Compound B15, 2-[1-[4-[4-[[2-[(E)-2-(4-chlorophenyl)ethenyl]-1,3-oxazol-4-yl]methoxy]phenyl]butyl]-1H-imidazol-2-yl]-1-ethanol]	127 to 128 °C		
OCCc1nccn1CCCCc1ccc(OCc2coc(/C=C/c3ccc(Br)cc3)n2)cc1 [Compound B16, 2-[1-[4-[4-[[2-[(E)-2-(4-bromophenyl)ethenyl]-1,3-oxazol-4-yl]methoxy]phenyl]butyl]-1H-imidazol-2-yl]-1-ethanol]	149 to 150 °C		
OCCc1nccn1CCCCc1ccc(OCc2coc(/C=C/c3ccc(F)cc3F)n2)cc1 [Compound B19, 2-[1-[4-[4-[[2-[(E)-2-(2,4-difluorophenyl)ethenyl]-1,3-oxazol-4-yl]methoxy]phenyl]butyl]-1H-imidazol-2-yl]-1-ethanol]	93 to 95 °C		
OCCc1nccn1CCCc1ccc(OCc2coc(/C=C/c3ccc(F)cc3F)n2)cc1 [Compound B20, 2-[1-[3-[4-[[2-[(E)-2-(2,4-difluorophenyl)ethenyl]-1,3-oxazol-4-yl]methoxy]phenyl]propyl]-1H-imidazol-2-yl]-1-ethanol]	94 to 96 °C		
Cc1cccc(/C=C/c2nc(COc3ccc(CCCCc4c[nH]c(CC(O)CO)n4)cc3)co2)c1 (stereo not drawn) [Compound B22, 3-(4-{4-[4-({2-[(E)-2-(3-methylphenyl)ethenyl]-1,3-oxazol-4-yl}methoxy)phenyl]butyl}-1H-imidazol-2-yl)-1,2-propanediol]		1.9 µM	< 0.05 µM
OCC(O)Cc1nccn1CCCCc1ccc(OCc2coc(/C=C/c3ccc(F)cc3)n2)cc1 (stereo not drawn) [Compound B23, 3-(1-{4-[4-({2-[(E)-2-(4-fluorophenyl)ethenyl]-1,3-oxazol-4-yl}methoxy)phenyl]butyl}-1H-imidazol-2-yl)-1,2-propanediol]	114 to 116 °C		
OCC(O)Cc1nccn1CCCCc1ccc(OCc2coc(/C=C/c3ccc(C(F)(F)F)cc3)n2)cc1 (stereo not drawn) [Compound B24, 3-[1-(4-(4-[(2-{(E)-2-[4-(trifluoromethyl)phenyl]ethenyl}-1,3-oxazol-4-yl)methoxy]phenyl]butyl)-1H-imidazol-2-yl]-1,2-propanediol]	142 to 143 °C		
OCC(O)Cc1nccn1CCCc1cccc(OCc2coc(/C=C/c3ccc(C(F)(F)F)cc3)n2)c1 (stereo not drawn) [Compound B25, 3-[1-(3-{3-[(2-{(E)-2-[4-(trifluoromethyl)phenyl]ethenyl}-1,3-oxazol-4-yl)methoxy]phenyl}propyl)-1H-imidazol-2-yl]-1,2-propanediol]	102 to 104 °C		
OCC(O)Cc1nccn1CCCCc1ccc(OCc2coc(/C=C/c3ccc(F)cc3F)n2)cc1 (stereo not drawn) [Compound B26, 3-(1-{4-[4-({2-[(E)-2-(2,4-difluorophenyl)ethenyl]-1,3-oxazol-4-yl}methoxy)phenyl]butyl}-1H-imidazol-2-yl)-1,2-propanediol]	126 to 128 °C		
OCC(O)Cc1nccn1CCCc1cccc(OCc2coc(/C=C/c3ccc(F)cc3F)n2)c1 (stereo not drawn) [Compound B27, 3-(1-{3-[3-({2-[(E)-2-(2,4-difluorophenyl)ethenyl]-1,3-oxazol-4-yl}methoxy)phenyl]propyl}-1H-imidazol-2-yl)-1,2-propanediol]	92 to 94 °C		
OCC(O)Cc1nccn1CCCCc1ccc(OCc2coc(/C=C/c3c(F)cccc3F)n2)cc1 (stereo not drawn) [Compound B28, 3-[1-[4-[4-[[2-[(E)-2-(2,6-difluorophenyl)ethenyl]-1,3-oxazol-4-yl]methoxy]phenyl]butyl]-1H-imidazol-2-yl]-1,2-propanediol]	123 to 125 °C		

Reference: patent US20040138160A1, “Preventive/therapeutic method for cancer” (priority 2001, published 2004)
